Source: patent US5545625A, “Preventing conversion of citrulline to argininosuccinate to limit pathological nitric oxide overproduction” (The Medical College of Wisconsin Research Foundation, Inc., priority 1994, dated 1996)
Several values for one entry are separate records, joined by “and”; a condition that tells them apart may be missing. Identical values can stand only once.

Columns and labels:
[1] = molecular target: T1, immunostimulant induced argininosuccinate synthetase (Rattus norvegicus, UniProt P09034); test: Argininosuccinate synthetase assay in crude homogenate of immunostimulant treated rat aortic smooth muscle cells (Example VI); format: biochemical; conditions: test compound 1 mM; for counts per minute in the argininosuccinate synthetase assay: duplicate runs, control 534.00 and 443.00, background 217, 237 and 252 not subtracted
T1 sequence (P09034 1-412): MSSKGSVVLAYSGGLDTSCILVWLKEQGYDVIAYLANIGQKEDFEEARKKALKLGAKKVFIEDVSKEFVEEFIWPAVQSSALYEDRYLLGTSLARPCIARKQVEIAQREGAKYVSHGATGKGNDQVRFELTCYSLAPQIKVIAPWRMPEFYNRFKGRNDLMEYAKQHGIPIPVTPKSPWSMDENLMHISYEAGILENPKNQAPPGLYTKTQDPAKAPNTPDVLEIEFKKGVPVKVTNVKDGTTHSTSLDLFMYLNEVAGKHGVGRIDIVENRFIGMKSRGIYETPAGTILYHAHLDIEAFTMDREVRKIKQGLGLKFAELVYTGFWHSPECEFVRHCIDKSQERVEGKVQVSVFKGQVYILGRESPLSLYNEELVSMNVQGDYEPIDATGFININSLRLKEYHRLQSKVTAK
Experimental: Argininosuccinate synthetase activity was assayed based on the conversion of [^14 C]aspartate to [^14 C]argininosuccinate, as described in O'Brien, W. E., Biochemistry 18, 5353-5356, 1979, with the exception that aspartate was present at a concentration of 30 μm (0.021 μCi/nmol). Reaction mixtures also contained L-citrulline (5 mM), Tris (10 mM, pH 7.5), ATP 0.1mM), phosphoenolpyruvate (1.5 mM), pyruvate kinase (4.5 units), myokinase (4 units), and pyrophosphatase (0.2 unit) in a total volume of 0.3 ml. Reactions were allowed to proceed for 90 minutes at 37° C before termination and quantification of the [^14 C]argininosuccinate formed, using ion exchange chromatography on Dowex 1-X8 (200-400 mesh, Bio-Rad).
Immunostimulant treated rat aortic smooth muscle cells prepared as in Example I were homogenized in 10 volumes (10 ml/gm rat aortic smooth muscle cells) of 100 mM tris buffer containing 1 mM phenylmethylsulfonyl fluoride ([…]) and 1 mM dithiothreitol (to maintain enzyme in reduced form).
For the control, the crude homogenate was assayed for argininosuccinate synthetase by the procedure as described in Example I except that L-citrulline was present at a concentration of 150 μM instead of 5 mM. In duplicate runs, counts per minute were 534.00 (8.65% error) and 443.00 (9.50% error) counts per minute.
The background count to be subtracted from the above count results was obtained by omitting citrulline from the argininosuccinate synthetase assay and in three runs was determined to be 217, 237 and 252 counts per minute.

[2] = test system: rat aortic smooth muscle cells; test: Nitrite production (indicator of cellular NO synthesis) by LPS/interferon-gamma induced rat aortic smooth muscle cells (Examples IV, V); format: cell-based; conditions: L-citrulline varied at fixed L-arginine (0 or low), added with immunostimulant; 24 hours; FIG. 5
Experimental: Rat aortic smooth muscle cells were grown as described in Example I and were continuously treated with 30 μg/ml of bacterial lipopolysaccharide in combination with 50 ng/ml of interferongamma. Concentrations of mithramycin as indicated in FIG. 4 were added either simultaneously with immunostimulant (filled in circles in FIG. 4) or 4 hours later (open circles in FIG. 4).
Nitrite was used as an indicator of cellular NO synthesis and assay was carried out as described in Gross, S. S., et al, J. Biol. Chem. 267, 25722-25729 (1992). In the assay, cells were treated with serum- and arginine-free RPMI 1640 medium containing the desired test agents for 24 hours. The accumulation of nitrite in the cell culture medium was quantified colorimetrically after adding 100 μl of Griess reagent (1% sulfanilamide and 0.1% naphthalene diamine in 5% o-phosphoric acid) to an equal volume of sample.
Rat aortic smooth muscle cells were grown as described in Example I and were treated with 30 μg/ml of bacterial lipopolysaccharide in combination with 50 ng/ml of interferon-gamma. Concentrations of L-citrulline and L-arginine as indicated in FIG. 5 were added simultaneously with immunostimulant. Nitrite was used as an indicator of cellular NO synthesis and assay therefor was carried out as described in Example IV.

[3] = test system: human treated with interleukin-2; test: Hypotension during interleukin-2 treatment for renal cell cancer (Examples VIII, XIV); format: in vivo; conditions: interleukin-2 1×10^6, 5 days; L-thiocitrulline 10 mg/kg/day from start of infusion
Experimental: A human is treated for renal cell cancer with interleukin-2 (1×10^6 units) for 5 days. By the fifth day, the patient's blood pressure falls to 80/55 mm Hg and the patient encounters nausea and extreme discomfort. Three weeks later, the patient returns for a second course of interleukin-2 treatment but is pretreated (before commencing interleukin-2 infusion) with mithramycin (25 μg/kg) and is treated at 24 hour intervals thereafter with 25 μg/kg of mithramycin. The mithramycin is administered intravenously in 50 ml saline over a 3 to 6 hour interval.
A human is treated for renal cell cancer with interleukin-2 (1×10^6) for 5 days. Simultaneously with commencing interleukin-2 infusion, L-thiocitrulline (10 mg/kg/day) is administered.

[4] = test system: patient with Gram negative septicemia; test: Blood pressure in septicemia patient given dopamine plus test agent (Examples IX, XV); format: in vivo, human; conditions: dopamine 10 μg/kg/min plus L-thiocitrulline 20 mg/kg bolus then 10 mg/kg/hr
Experimental: A patient with Gram negative septicemia and blood pressure of 80/55 mm Hg is administered dopamine at 10 μg/kg/min to acutely increase blood pressure and concurrently is administered mithramycin (25 μg/kg) intravenously in 50 ml saline over 3-6 hours.
A patient with Gram negative septicemia and blood pressure of 80/55 mm Hg is administered dopamine at 10 μg/kg/min to acutely increase blood pressure and concurrently is intravenously administered an initial bolus dose of L-thiocitrulline of 20 mg/kg and thereafter L-thiocitrulline as a sustained infusion at a dose of 10 mg/kg/hr.

[5] = test system: Sprague-Dawley rats; test: Air pouch inflammatory model with croton oil (Examples XII, XVIII); format: in vivo, rat; conditions: L-thiocitrulline 20 mg/kg intraperitoneally, repeated at 6-24 hour intervals; end of 5 days; versus rats without drug
[6] = test system: patient with Gram negative septicemia; test: Blood pressure in septicemia patient given N^G -methyl-L-arginine plus test agent (Examples X, XVI); format: in vivo, human; conditions: N^G -methyl-L-arginine 20 mg/kg bolus then 10 mg/kg/hr, plus N^ω -methyl-L-citrulline 40 mg/kg intravenously over 3-6 hours
Experimental: A patient with Gram negative septicemia and blood pressure of 80/55 mm Hg is administered N^G -methyl-L-arginine in a bolus dose of 20 mg/kg intravenously in saline and thereafter is given a sustained infusion of N^G -methyl-L-arginine at a dosage of 10 mg/kg/hr. Mithramycin (25 μg/kg) is given intravenously in 50 ml saline over 3-6 hours starting at the time of the bolus dose of N^G -methyl-L-arginine. […] The patient is released after 2 days.
A patient with a Gram negative septicemia and blood pressure of 80/55 mm Hg is administered N^G -methyl-L-arginine in a bolus dose of 20 mg/kg intravenously in saline and thereafter is given a sustained infusion of N^G -methyl-L-arginine at a dose of 10 mg/kg/hr. N^ω -Methyl-L-citrulline (40 mg/kg) is given intravenously in 50 ml saline over 3-6 hours starting at the time of the bolus dose of N^G -methyl-L-arginine.

N=C(N)NOCC[C@H](N)C(=O)O [L-canavanine]
inhibition of immunostimulant induced argininosuccinate synthetase ([1]; L-citrulline 150 μM): are inhibitors of immunostimulant induced argininosuccinate synthetase
counts per minute in the argininosuccinate synthetase assay ([1]; L-citrulline 150 μM): 355.00 (10.61% error) counts per minute and 393.00 (10.09% error) counts per minute

NC(=O)NCCC[C@H](N)C(=O)O [L-citrulline]
nitrite concentration in cell culture medium [2]: maximal nitrite is obtained

CCC[C@H](N)C(=O)O [L-norvaline]
inhibition of immunostimulant induced argininosuccinate synthetase ([1]; stated in present tense): inhibition of immunostimulant induced argininosuccinate synthetase is shown

NC(=S)NCCC[C@H](N)C(=O)O [L-thiocitrulline]
inhibition of immunostimulant induced argininosuccinate synthetase ([1]; L-citrulline 150 μM): are inhibitors of immunostimulant induced argininosuccinate synthetase
counts per minute in the argininosuccinate synthetase assay ([1]; L-citrulline 150 μM): 272.00 (12.13% error) counts per minute and 227.00 (13.27% error) counts per minute
development of hypotension [3]: Hypotension does not develop
blood pressure [4]: becomes normal within minutes and this state is sustained
inflammation [5]: less inflammation
nitrite in the fluid exudate of the lesion [5]: significantly less nitrite

CNC(=N)NCCC[C@H](N)C(=O)O [N^ω -methyl-L-arginine]
counts per minute in the argininosuccinate synthetase assay ([1]; L-citrulline 150 μM): 591.00 (8.23% error) counts per minute and 520.00 (8.77% error) counts per minute

CNC(=O)NCCC[C@H](N)C(=O)O [N^ω -methyl-L-citrulline]
inhibition of immunostimulant induced argininosuccinate synthetase ([1]; stated in present tense): more potent than obtained with L-canavanine but less potent than obtained with L-thiocitrulline
blood pressure [6]: becomes mildly hypotensive or normal within minutes
